This note sets out measurements from patent US11970497B2, “Tricyclic AKR1C3 dependent KARS inhibitors” (Novartis AG, priority 2019, dated 2024).

SMILES strings stand for the structures.

One may read the AC50 as the concentration giving half of the maximal activity seen.

Assay [1] deals with H460 (NRF2 pathway mutant cell line with high AKR1C3 expression). Kind of assay: In vitro cell proliferation assay (CellTiter-Glo), H460. Particulars: Homo sapiens, NCI-H460, 72 h; H460 cells, 3 days, CellTiter-Glo, top concentration 10 μM; read-out: H460 Qualified absolute AC50. Type of assay: cell-based. The procedure, abridged:
(§1)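 Cells seeded day 1 (H460 800/well, Hara 2000/well) in RPMI-1640 with 10% FBS; compounds added day 2 as 8-point 1:5 dilutions from 10 μM top. After 3 days at 37 °C, viability read by CellTiter-Glo luminescence, normalized to DMSO and MG132 (30 μM) controls to derive percentage activity and AC50.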

In assay [2] the test system is Hara (NRF2 pathway wild type cell line with low AKR1C3 expression). Kind of assay: In vitro cell proliferation assay (CellTiter-Glo), Hara. Particulars: 72 h; Hara cells, 3 days, CellTiter-Glo, top concentration 10 μM; read-out: HARA Qualified absolute AC50. Type of assay: cell-based. The procedure, abridged:
as §1
Background: In ATP-based viability assays light output follows the ATP content of the culture.

A further assay addresses T1, Human KARS (Homo sapiens, UniProt Q15046).
T1 construct: Human KARS protein (residues 70-584) was expressed and purified; made in house
Kind of assay: KARS AMP Transcreener FP assay. Type of assay: biochemical. As to conditions: 50 nM human KARS, 20 μM ATP, 50 μM L-Lysine, 1 μM tRNA, 2 h at RT; read-out: Human KARS Transcreener AMP assay Qualified absolute AC50. From the text:
KARS AMP Transcreener FP Assay to Measure Inhibition of KARS Enzymatic Activity
Lysine-tRNA synthetase (KARS) is an enzyme that catalyzes the reaction of ATP, L-lysine, and tRNA(Lys) to form AMP, diphosphate, and L-lysyl-tRNA(Lys).
The Transceener® AMP/GMP (BellBrook Labs, Madison, WI, USA) is a far red, competitive fluorescence polarization (FP) immunoassay based on the detection of AMP, which is one of the products of aminoacylation of tRNA. In this assay, a fluorescently labeled AMP (AMP Alexa Fluor 633) is used as the tracer that can be recognized by a specific antibody. In the absence of AMP, all the tracer molecules are bound to the antibodies leading to large polarization. The AMP product generated by the enzyme reaction will compete with the tracer for binding to the antibody which leads to a decrease in the polarization. As such, the enzyme activity is inversely proportional to FP values.
Human KARS protein (residues 70-584) was expressed and purified using a similar protocol to what is described in literature (Crystal structure of tetrameric form of human lysyl-tRNA synthetase: Implications for multisynthetase complex formation Guo, M., Ignatov, M., Musier-Forsyth, K., Schimmel, P., Yang, X. L. (2008) Proc. Natl. Acad. Sci. Usa 105: 2331-2336).
The KARS enzyme assay was performed in a final volume of 10 μL per well of Corning Costar 384 well plate, flat bottom, black non-treated plate. The final assay concentration was 20 mM HEPES pH 7.5, 1 mM DTT, 50 nM human KARS, 20 μM ATP, 50 μM L-Lysine, 1 μM tRNA and 8 mM MgCl2. Compounds were serial diluted 1:3 in DMSO in a master plate to generate a 10 concentration points dose response with maximum concentration of 10 mM. 50 nL from compound master plate were spotted in each well of a 384 black plate (Corning 3573), and 5 μL of enzyme mixture containing 100 nM KARS diluted in assay buffer (20 mM HEPES pH 7.5 and 1 mM OTT) were added. The reaction was started by adding 5 μL of the substrate mixture containing 40 μM ATP (final 20 μM ATP), 100 μM L-Lysine (final 50 μM), 2 μM tRNA (final 1 μM), 16 mM MgCl2 (final 8 mM MgCl2) diluted in assay buffer (20 mM HEPES pH 7.5 and 1 mM OTT). The mixtures were mixed and incubated for 2 h at RT before the termination of the reaction.
Transcreener® stop and detection buffers were prepared (1× stop buffer [final: 0.5×], 2 nM Tracer [final: 1 nM] and 5 μg/ml anti-AMP antibody [final: 2.5 μg/ml] in deionized water) and 10 μL of the stop and detection mix were added to the reaction wells, mixed for a minute and centrifuged at 1000 rpm for 10 seconds. The plates were read after incubating at RT for 30-60 min using Infinite® M1000 with the following settings: Excitation wavelength: 635 nm; Emission wavelength: 680 nm. FP values of DMSO controls were used to normalize the data and calculate IC50s of compounds using the Helios Software suite.

T1 sequence (Q15046 70-584): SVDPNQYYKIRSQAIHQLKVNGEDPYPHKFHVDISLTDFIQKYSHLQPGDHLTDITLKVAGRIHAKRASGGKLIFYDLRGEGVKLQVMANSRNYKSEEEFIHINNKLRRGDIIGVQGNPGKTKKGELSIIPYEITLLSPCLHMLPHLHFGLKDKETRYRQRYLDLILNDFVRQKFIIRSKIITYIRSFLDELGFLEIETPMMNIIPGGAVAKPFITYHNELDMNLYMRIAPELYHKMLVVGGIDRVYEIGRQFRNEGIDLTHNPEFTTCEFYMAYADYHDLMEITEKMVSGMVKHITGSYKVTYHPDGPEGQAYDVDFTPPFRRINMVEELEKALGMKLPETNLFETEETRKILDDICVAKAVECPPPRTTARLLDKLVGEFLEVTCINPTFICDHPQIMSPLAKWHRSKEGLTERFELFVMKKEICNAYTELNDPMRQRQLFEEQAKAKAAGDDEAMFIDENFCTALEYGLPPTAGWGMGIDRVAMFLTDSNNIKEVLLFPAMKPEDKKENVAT

Consider `CN1c2ccc(F)cc2C(O)CC12CCN(C(=O)NCc1ccc(F)c([C@@H](N)C(F)(F)F)c1)CC2` (mixture of isomers) [Example 167, N-(3-((R)-1-amino-2,2,2-trifluoroethyl)-4-fluorobenzyl)-6′-fluoro-4′-hydroxy-1′-methyl-3′,4′-dihydro-1′H-spiro[piperidine-4,2′-quinoline]-1-carboxamide], for which the concentration at half-maximal activity (AC50) in assay [1] came out at 345 nM; in assay [2] it was 100 nM; at Human KARS, 918 nM.
Turning to `O=C(NCc1ccc(F)c(CO)c1)N1CCC2(CC1)CC(O)c1cc(F)ccc1N2` (racemic) [Example 159, 6′-fluoro-N-(4-fluoro-3-(hydroxymethyl)benzyl)-4′-hydroxy-3′,4′-dihydro-1′H-spiro[piperidine-4,2′-quinoline]-1-carboxamide], the AC50 in assay [1] was found to be 53 nM; in assay [2], 67 nM; on Human KARS it was 45.9 nM.
On the same counts, the results for `CN1c2ccc(F)cc2C(=O)CC12CCN(C(=O)NCc1ccc(F)cc1)CC2` [Example 9, 6′-fluoro-N-(4-fluorobenzyl)-1′-methyl-4′-oxo-3′,4′-dihydro-1′H-spiro[piperidine-4,2′-quinoline]-1-carboxamide] are 17 nM, greater than 10000 nM and greater than 10000 nM.
For `Nc1cc(CNC(=O)N2CCC3(CC2)CC(O)c2cc(F)ccc2N3)ccc1F` (racemic) [Example 158, N-(3-amino-4-fluorobenzyl)-6′-fluoro-4′-hydroxy-3′,4′-dihydro-1′H-spiro[piperidine-4,2′-quinoline]-1-carboxamide] the same measures were 33 nM, 6 nM and 42.1 nM.
For `CN1c2ccc(F)cc2C(O)CC12CCN(C(=O)NCc1ccc(F)c(CC(N)=O)c1)CC2` (racemic) [Example 161, N-(3-(2-amino-2-oxoethyl)-4-fluorobenzyl)-6′-fluoro-4′-hydroxy-1′-methyl-3′,4′-dihydro-1′H-spiro[piperidine-4,2′-quinoline]-1-carboxamide] the same measures were 278 nM, 91 nM and 71.8 nM.
As to `CS(=O)(=O)Nc1cc(CNC(=O)N2CCC3(CC2)CC(O)c2cc(F)ccc2N3)ccc1F` (racemic) [Example 164, 6′-fluoro-N-(4-fluoro-3-(methylsulfonamido)benzyl)-4′-hydroxy-3′,4′-dihydro-1′H-spiro[piperidine-4,2′-quinoline]-1-carboxamide], the concentration at half-maximal activity (AC50) stood at 253 nM in assay [1], 234 nM in assay [2] and 106 nM on Human KARS.
On the same counts, the results for `NC(=O)c1cc(CNC(=O)N2CCC3(CC2)CC(O)c2cc(F)ccc2N3)ccc1F` (racemic) [Example 160, N-(3-carbamoyl-4-fluorobenzyl)-6′-fluoro-4′-hydroxy-3′,4′-dihydro-1′H-spiro[piperidine-4,2′-quinoline]-1-carboxamide] are 0.4 nM, 1 nM and 47.2 nM.
`O=C(NCc1ccc(F)cc1)N1CCC2(CC1)C[C@@H](O)c1cc(F)ccc1N2` (single isomer, unassigned) [Example 152]: the AC50 in assay [1] was 21 nM; in assay [2] it was 16 nM; on Human KARS, 9.1 nM.
On the same counts, the results for `CN1c2ccc(F)cc2[C@H](O)CC12CCN(C(=O)NCc1ccc(F)cc1)CC2` (single isomer, unassigned) [Example 151a] are 24 nM, 20 nM and 9.1 nM.
`O=C(NC1CC(O)C1)c1cc(CNC(=O)N2CCC3(CC2)CC(O)c2cc(F)ccc2N3)ccc1F` (racemic) [Example 162, 6′-fluoro-N-(4-fluoro-3-((3-hydroxycyclobutyl)carbamoyl)benzyl)-4′-hydroxy-3′,4′-dihydro-1′H-spiro[piperidine-4,2′-quinoline]-1-carboxamide]: the half-maximal activity concentration (AC50) in assay [1] was determined as 47 nM; at Human KARS it was 73.7 nM.
`COCCNc1cc(F)ccc1CNC(=O)N1CCC2(CC1)CC(O)c1cc(F)ccc1N2C` (racemic) [Example 166, 6′-fluoro-N-(4-fluoro-2-((2-methoxyethyl)amino)benzyl)-4′-hydroxy-1′-methyl-3′,4′-dihydro-1′H-spiro[piperidine-4,2′-quinoline]-1-carboxamide]: the AC50 came to 3 nM in assay [1], 22 nM in assay [2] and 243 nM on Human KARS.
For `NC(=O)c1cc(CNC(=O)N2CCC3(CC2)CC(O)c2cc(F)cc(F)c2N3)ccc1F` (racemic) [Example 157, N-(3-carbamoyl-4-fluorobenzyl)-6′,8′-difluoro-4′-hydroxy-3′,4′-dihydro-1′H-spiro[piperidine-4,2′-quinoline]-1-carboxamide] the same measures were 0.1 nM, 2 nM and 34.1 nM.
`O=C(NCc1ccc(F)cc1O)N1CCC2(CC1)C[C@@H](O)c1cc(F)ccc1N2` (single isomer, unassigned) [Example 154a]: the half-maximal activity concentration (AC50) amounted to 5 nM in assay [1], 5 nM in assay [2] and 11.7 nM at Human KARS.
Consider `CN1c2ccc(F)cc2C(O)CC12CCN(C(=O)NCc1cc(NCCO)c(F)cc1F)CC2` (racemic) [Example 156, N-(2,4-difluoro-5-((2-hydroxyethyl)amino)benzyl)-6′-fluoro-4′-hydroxy-1′-methyl-3′,4′-dihydro-1′H-spiro[piperidine-4,2′-quinoline]-1-carboxamide], for which the half-maximal activity concentration (AC50) in assay [1] was 49 nM; in assay [2] it was 80 nM; at Human KARS, 23.5 nM.
Take `CN1c2ccc(F)cc2C(O)CC12CCN(C(=O)NCc1ccc(F)c(NCCO)c1)CC2` (centres unmarked) [Example 165, 6′-fluoro-N-(4-fluoro-3-((2-hydroxyethyl)amino)benzyl)-4′-hydroxy-1′-methyl-3′,4′-dihydro-1′H-spiro[piperidine-4,2′-quinoline]-1-carboxamide]: the concentration at half-maximal activity (AC50) came out at 49 nM in assay [1], 23 nM in assay [2] and 199 nM on Human KARS.
On to `O=C(NCc1ccc(F)cc1)N1CCC2(CC1)C[C@H](O)c1cc(F)ccc1N2` (single isomer, unassigned) [Example 153], for which the results for the concentration at half-maximal activity (AC50) (in assay [1]; in assay [2]; on Human KARS) were 2260 nM, 2500 nM and greater than 10000 nM, respectively.
For `CN1c2ccc(F)cc2C(O)CC12CCN(C(=O)NCc1ccc(F)c(OCCO)c1)CC2` (racemic) [Example 163], the half-maximal activity concentration (AC50) in assay [1] turned out to be 76 nM; in assay [2], 11 nM; at Human KARS, 98.4 nM.
